The record followed here is US11827629B2, “CDGSH iron sulfur domain 2 activators and use thereof” (National Health Research Institutes, priority 2021, dated 2023).

The experiment concerns Cisd2 promoter with firefly luciferase reporter. Put plainly: Cisd2-luciferase reporter assay in HEK293-CISD2 cells. The experiment is classed as cell-based. Particulars: Homo sapiens, 24 hours incubation, luciferase luminescence. Here is the method: A typical in vitro screening method includes the following steps: (i) obtaining an initial level of Cisd2 in a batch of human embryonic kidney cells 293 (HEK-293 cells) that express Cisd2, (ii) treating the batch of HEK-293 cells with a compound of this invention, and (iii) analyzing the level of Cisd2 after the treatment, thereby determining the potency of the compound as a Cisd2 activator.
Compounds 1-109 were tested for increasing the level of Cisd2 in human embryonic kidney cells 293 (HEK293), a transfected cell line expressing Cisd2, using the Cisd2-luciferase reporter assay as follows.
The transfected HEK293 cells stably expressed Cisd2 promoter with firefly luciferase reporter (HEK293-CISD2). They were kept in Dulbecco's modified Eagle's medium (DMEM) (Gibco, New York, NY, USA). Culture medium was supplemented with 10% heat-inactivated fetal bovine serum (FBS), 2 mM L-Glutamine, 1 mM sodium pyruvate, 0.1% MEM Non-Essential Amino Acids, 1 ug/ml puromycin and 1% penicillin/streptomycin (HyClone, Logan, UT, USA). The cells were maintained at 37° C. in an incubator (Thermo Fisher Scientific, New York, NY, USA) with an atmosphere of 5% CO2. The stably transfected cells were seeded in 384-well plates at a density of 3×10^3 cells/well. After incubation with tested compounds at 37° C. for 24 hours, ONE-Glo™ Luciferase Assay System (Promega, Madison, WI, USA) was added at room temperature for 5 minutes to detect any luciferase activity. Luminescence intensity was registered using plate reader Victor^2V (PerkinElmer, Boston, MA, USA).
EC50 values in this table are presented in three classes, i.e., A: <1 μM, B: 1 μM-5 μM, and C: 5 μM-10 μM.
Molecule `O=C(CS(=O)(=O)c1cccc(Cl)c1Cl)N1Cc2ccccc2C1` [Compound 98, 2-[(2,3-dichlorophenyl)sulfonyl]-1-(1,3-dihydro-2H-isoindol-2-yl)ethanone] yielded a concentration giving a half-maximal response (EC50) of less than 1000 nM.

The molecule `O=C(N1Cc2ccccc2C1)C(F)(F)[S+]([O-])c1nccs1` (centres unmarked) [Compound 54, 1-(1,3-dihydro-2H-isoindol-2-yl)-2,2-difluoro-2-(1,3-thiazol-2-ylsulfinyl)ethanone] registered an EC50 of less than 1000 nM. In the case of `O=C(CS(=O)(=O)c1ccccc1Cl)N1Cc2ccccc2C1` [Compound 99, 2-[(2-chlorophenyl)sulfonyl]-1-(1,3-dihydro-2H-isoindol-2-yl)ethanone] it was less than 1000 nM; in that of `O=C(CSc1ccccc1Cl)N1Cc2ccccc2C1` [Compound 67, 2-[(2-chlorophenyl)sulfanyl]-1-(1,3-dihydro-2H-isoindol-2-yl)ethanone], less than 1000 nM. In the case of `Nc1nnc(SCC(=O)N2Cc3ccccc3C2)s1` [Compound 20, 2-[(5-amino-1,3,4-thiadiazol-2-yl)sulfanyl]-1-(1,3-dihydro-2H-isoindol-2-yl)ethanone] it was 1000 to 5000 nM. On to `O=C(CSc1ccccc1F)N1Cc2ccc(F)cc2C1` [Compound 63, 1-(5-fluoro-1,3-dihydro-2H-isoindol-2-yl)-2-[(2-fluorophenyl)sulfanyl]ethanone], for which the EC50 is less than 1000 nM. In the case of `Cc1nc(SCC(=O)N2Cc3ccccc3C2)sc1C` [Compound 69, 1-(1,3-dihydro-2H-isoindol-2-yl)-2-[(4,5-dimethyl-1,3-thiazol-2-yl)sulfanyl]ethanone] it was 1000 to 5000 nM; in that of `O=C(CS(=O)(=O)c1ccccn1)N1Cc2ccc(O)cc2C1` [Compound 85, 1-(5-hydroxy-1,3-dihydro-2H-isoindol-2-yl)-2-(pyridin-2-ylsulfonyl)ethanone], less than 1000 nM; in that of `O=C(CS(=O)(=O)c1nccs1)N1Cc2cccc(F)c2C1` [Compound 30, 1-(4-fluoro-1,3-dihydro-2H-isoindol-2-yl)-2-(1,3-thiazol-2-ylsulfonyl)ethanone], less than 1000 nM. In the case of `O=C(CS(=O)(=O)c1nccs1)N1Cc2ccc([N+](=O)[O-])cc2C1` [Compound 36, 1-(5-nitro-1,3-dihydro-2H-isoindol-2-yl)-2-(1,3-thiazol-2-ylsulfonyl)ethanone] it was 1000 to 5000 nM; in that of `O=C(CSc1ccccn1)N1Cc2ccc(O)cc2C1` [Compound 55, 1-(5-hydroxy-1,3-dihydro-2H-isoindol-2-yl)-2-(pyridin-2-ylsulfanyl)ethanone], 5000 to 10000 nM. As for `O=C(CSc1nccs1)N1Cc2cccc(F)c2C1` [Compound 4, 1-(4-fluoro-1,3-dihydro-2H-isoindol-2-yl)-2-(1,3-thiazol-2-ylsulfanyl)ethanone], the figure is less than 1000 nM; as for `O=C(CS(=O)(=O)c1ncccn1)N1Cc2ccccc2C1` [Compound 43, 1-(1,3-dihydro-2H-isoindol-2-yl)-2-(pyrimidin-2-ylsulfonyl)ethanone], 1000 to 5000 nM; as for `O=C(CSc1nccs1)N1Cc2cc(Cl)c(Cl)cc2C1` [Compound 8, 1-(5,6-dichloro-1,3-dihydro-2H-isoindol-2-yl)-2-(1,3-thiazol-2-ylsulfanyl)ethanone], 1000 to 5000 nM. For `Cc1nnc(SCC(=O)N2Cc3ccccc3C2)s1` [Compound 19, 1-(1,3-dihydro-2H-isoindol-2-yl)-2-[(5-methyl-1,3,4-thiadiazol-2-yl)sulfanyl]ethanone], the EC50 lay in the range of 1000 to 5000 nM. With `Cc1cnc(SCC(=O)N2Cc3ccccc3C2)s1` [Compound 11, 1-(1,3-dihydro-2H-isoindol-2-yl)-2-[(5-methyl-1,3-thiazol-2-yl)sulfanyl]ethanone], the half-maximal effective concentration (EC50) was less than 1000 nM. `O=C(CSc1ccc(F)cc1F)N1Cc2ccccc2C1` [Compound 60, 2-[(2,4-difluorophenyl)sulfanyl]-1-(1,3-dihydro-2H-isoindol-2-yl)ethanone] displayed a concentration for a half-maximal effect (EC50) of less than 1000 nM. In the case of `O=C(CS(=O)(=O)c1ccccc1)N1Cc2cccc(F)c2C1` [Compound 96, 1-(4-fluoro-1,3-dihydro-2H-isoindol-2-yl)-2-(phenylsulfonyl)ethanone] it was less than 1000 nM.

Molecule `O=C(CCS(=O)(=O)c1ccccn1)N1Cc2ccc(F)cc2C1` [Compound 49, 1-(5-fluoro-1,3-dihydro-2H-isoindol-2-yl)-3-(pyridin-2-ylsulfonyl)propan-1-one] showed a concentration for a half-maximal effect (EC50) of 1000 to 5000 nM. Consider `O=C(CS(=O)(=O)c1ccccc1)N1Cc2ccc(F)cc2C1` [Compound 93, 1-(5-fluoro-1,3-dihydro-2H-isoindol-2-yl)-2-(phenylsulfonyl)ethanone], for which the EC50 was less than 1000 nM. As for `O=C(CSc1ccccn1)N1Cc2ccc(F)cc2C1` [Compound 16, 1-(5-fluoro-1,3-dihydro-2H-isoindol-2-yl)-2-(pyridin-2-ylsulfanyl)ethanone], the figure is less than 1000 nM; as for `COc1ccc2c(c1)CN(C(=O)CS(=O)(=O)c1ccccn1)C2` [Compound 39, 1-(5-methoxy-1,3-dihydro-2H-isoindol-2-yl)-2-(pyridin-2-ylsulfonyl)ethanone], less than 1000 nM. As to `O=C(CSc1cccc(Cl)n1)N1Cc2ccccc2C1` [Compound 18, 2-[(6-chloropyridin-2-yl)sulfanyl]-1-(1,3-dihydro-2H-isoindol-2-yl)ethanone], the half-maximal effective concentration (EC50) is 1000 to 5000 nM.

`COc1ccc2c(c1)CN(C(=O)CSc1nccs1)C2` [Compound 2, 1-(5-methoxy-1,3-dihydro-2H-isoindol-2-yl)-2-(1,3-thiazol-2-ylsulfanyl)ethanone] came in with an EC50 of less than 1000 nM.

In turn, `O=C(CSc1cccc(Cl)c1Cl)N1Cc2ccccc2C1` [Compound 68, 2-[(2,3-dichlorophenyl)sulfanyl]-1-(1,3-dihydro-2H-isoindol-2-yl)ethanone] displayed a 50% effective concentration (EC50) of 1000 to 5000 nM.

Molecule `Nc1ccc(SCC(=O)N2Cc3ccccc3C2)cc1` [Compound 61, 2-[(4-aminophenyl)sulfanyl]-1-(1,3-dihydro-2H-isoindol-2-yl)ethanone] showed an EC50 of less than 1000 nM. `O=C(CS(=O)(=O)c1ccc(F)cc1F)N1Cc2ccccc2C1` [Compound 91, 2-[(2,4-difluorophenyl)sulfonyl]-1-(1,3-dihydro-2H-isoindol-2-yl)ethanone]: the EC50 was less than 1000 nM. As for `O=C(CS(=O)(=O)c1ccccc1F)N1Cc2cc(F)c(F)cc2C1` [Compound 95, 1-(5,6-difluoro-1,3-dihydro-2H-isoindol-2-yl)-2-[(2-fluorophenyl)sulfonyl]ethanone], the figure is less than 1000 nM; as for `O=C(CSc1ncc[nH]1)N1Cc2ccccc2C1` [Compound 21, 1-(1,3-dihydro-2H-isoindol-2-yl)-2-(1H-imidazol-2-ylsulfanyl)ethanone], 5000 to 10000 nM. Regarding `O=C(C[S+]([O-])c1ccccc1Cl)N1Cc2ccccc2C1` (centres unmarked) [Compound 81, 2-[(2-chlorophenyl)sulfinyl]-1-(1,3-dihydro-2H-isoindol-2-yl)ethanone], the EC50 was less than 1000 nM. In the case of `O=C(CS(=O)(=O)c1nccs1)N1Cc2ccc(Cl)cc2C1` [Compound 33, 1-(5-chloro-1,3-dihydro-2H-isoindol-2-yl)-2-(1,3-thiazol-2-ylsulfonyl)ethanone] it was less than 1000 nM; in that of `O=C(CSc1ccccc1)N1Cc2ccc(F)cc2C1` [Compound 64, 1-(5-fluoro-1,3-dihydro-2H-isoindol-2-yl)-2-(phenylsulfanyl)ethanone], less than 1000 nM.
